Article PMC6999911, “New 2-Ethylthio-4-methylaminoquinazoline derivatives inhibiting two subunits of cytochrome bc1 in Mycobacterium tuberculosis” (PLoS Pathogens, 2020)
≈ marks a conversion by molar mass, not a printed value.

Assays:
[1] = system: Corynebacterium glutamicum ATCC13032; assay: MIC, different organisms; format: cell-based
[2] = system: Mycobacterium tuberculosis HN878; assay: MIC, different organisms; format: cell-based
[3] = system: Mycolicibacterium vaccae ATCC 15483; assay: MIC, different organisms; format: cell-based; settings: ATCC15483
[4] = system: Mycobacterium tuberculosis MDR 59744; assay: MIC, different organisms; format: cell-based; settings: MDR59744, read-out: MIC
Micrococcus luteus = assay: MIC, different organisms; format: cell-based
[5] = system: Mycobacterium bovis BCG Pasteur; assay: microbe, parasite or virus in culture; format: cell-based; settings: Mycobacterium tuberculosis variant bovis BCG
Enterococcus faecalis = assay: MIC, different organisms; format: cell-based
[6] = system: Mycobacterium tuberculosis Erdman; assay: MIC, different organisms; format: cell-based
Escherichia coli PQ37 = assay: MIC, different organisms; format: cell-based
[7] = system: non-replicating, streptomycin-starved strain 18b; assay: Activity against non-replicating strain 18b (model for latent TB); format: cell-based, Mycobacterium tuberculosis; settings: streptomycin-starved 18b
[8] = system: Mycobacterium smegmatis mc^2155; assay: MIC, different organisms; format: cell-based; settings: Mycolicibacterium smegmatis
Candida albicans = assay: MIC, different organisms; format: cell-based
[9] = system: Mycobacteroides abscessus subsp. abscessus 2005–0524; assay: MIC, different organisms; format: cell-based
[10] = system: THP-1 macrophages infected with M.tb H37Rv; assay: Ex vivo drug susceptibility in infected THP-1 macrophages; format: cell-based; settings: Mycobacterium tuberculosis; THP-1 macrophages infected with H37Rv, 48h
[11] = system: Mycobacteroides abscessus subsp. massiliense 2005–0484; assay: MIC, different organisms; format: cell-based
[12] = system: Mycobacterium marinum Strain M; assay: MIC, different organisms; format: cell-based
Listeria monocytogenes = assay: MIC, different organisms; format: cell-based
[13] = system: Mycobacterium avium ATCC15769; assay: MIC, different organisms; format: cell-based
Salmonella typhimurium = assay: MIC, different organisms; format: cell-based; settings: Salmonella enterica
[14] = system: Mycobacteroides abscessus subsp. bolletii 1999–0888; assay: MIC, different organisms; format: cell-based
Staphylococcus aureus = assay: MIC, different organisms; format: cell-based
[15] = microsomes
in vitro = settings: human, microsomes
Bacillus subtilis = assay: MIC, different organisms; format: cell-based
Pseudomonas putida = assay: MIC, different organisms; format: cell-based
[16] = system: Mycobacterium canettii STB-L; assay: MIC, different organisms; format: cell-based; settings: Mycobacterium canetti; Mycobacterium canettii STB-L; read-out: MIC
[17] = system: Corynebacterium diphtheriae; assay: MIC, different organisms; format: cell-based
HepG2 cells = format: cell-based, Human; settings: for Selective index TD50/MIC: HepG2 TD50 / H37Rv MIC; for HepG2 TD99: Toxic dose that inhibits 99% of cell growth, 3 days
Method: Human HepG2 cells (ATCC HB-8065, 4000 cells/well) were incubated for 3 days with two-fold serially diluted compounds at 37°C, under an atmosphere of 5% CO2. Cell viability was determined by the addition of resazurin (0.0025% w/v) for 5 h at 37°C and the fluorescence intensity measured as in REMA.

Pseudomonas aeruginosa = assay: MIC, different organisms; format: cell-based

Row | Structure (SMILES) | melting point [°C] | MIC [1] [µg/mL] | MIC [2] [µg/mL] | MIC [3] [µg/mL] | MIC [4] [µg/mL] | MIC (Micrococcus luteus) [µg/mL] | MIC [5] [µg/mL] | MIC (Enterococcus faecalis) [µg/mL] | MIC [6] [µg/mL] | MIC (Escherichia coli PQ37) [µg/mL] | Activity against non-replicating strain 18b [7] | MIC [8] [µg/mL] | MIC (Candida albicans) [µg/mL] | MIC [9] [µg/mL] | IC50 [10] [µg/mL] | MIC [11] [µg/mL] | MIC [12] [µg/mL] | MIC (Listeria monocytogenes) [µg/mL] | MIC [13] [µg/mL] | MIC (Salmonella typhimurium) [µg/mL] | other results
1 | CNc1nc(SCc2ccccc2)nc2cccc(F)c12 | 101 to 104 |  |  |  |  |  |  |  |  |  |  |  |  |  |  |  |  |  |  |  | 
2 | CCSc1nc(NC)c2cc(C(F)(F)F)ccc2n1 | 161 to 163 |  |  |  |  |  |  |  |  |  |  |  |  |  |  |  |  |  |  |  | 
3 | CCSc1nc(NC)c2ccccc2n1 [Compound 11626141] |  | 66.8 (≈ 305 µM) | 0.05 (≈ 0.228 µM) | ≥ 100 | 0.02 (≈ 0.0912 µM) | ≥ 100 | 0.9 (≈ 4.1 µM) | ≥ 100 | 0.01 (≈ 0.0456 µM) | ≥ 100 | no activity | 38.4 (≈ 175 µM) | ≥ 100 | 62.4 (≈ 285 µM) | 0.013 (≈ 0.0593 µM) | ≥ 100 | 0.1 (≈ 0.456 µM) | ≥ 100 | ≥ 100 | ≥ 100 | MIC [14]: ≥ 100 µg/mL; MIC (Staphylococcus aureus): ≥ 100 µg/mL; Human microsome stability, clearance class [15]: high; microsomal CLint (in vitro): 120 µL/min/mg; MIC (Bacillus subtilis): ≥ 100 µg/mL; MIC (Pseudomonas putida): ≥ 100 µg/mL; MIC [16]: 0.05 µg/mL (≈ 0.228 µM); MIC [17]: ≥ 100 µg/mL; Selective index TD50/MIC (HepG2 cells): 575; HepG2 TD99 (HepG2 cells): 53 µg/mL; MIC (Pseudomonas aeruginosa): ≥ 100 µg/mL
4 | CCNc1nc(SCC)nc2ccccc12 [Compound 11626142] |  | 75 (≈ 321 µM) | 0.2 (≈ 0.857 µM) | ≥ 100 | 0.09 (≈ 0.386 µM) | ≥ 100 | 0.8 (≈ 3.43 µM) | ≥ 100 | 0.1 (≈ 0.429 µM) | ≥ 100 | no activity | 75.6 (≈ 324 µM) | 44.3 (≈ 190 µM) | 100 (≈ 429 µM) | 0.012 (≈ 0.0514 µM) | ≥ 100 | 0.8 (≈ 3.43 µM) | ≥ 100 | 49.1 (≈ 210 µM) | ≥ 100 | MIC [14]: ≥ 100 µg/mL; MIC (Staphylococcus aureus): ≥ 100 µg/mL; Human microsome stability, clearance class [15]: high; microsomal CLint (in vitro): 122 µL/min/mg; MIC (Bacillus subtilis): ≥ 100 µg/mL; MIC (Pseudomonas putida): ≥ 100 µg/mL; MIC [16]: 0.2 µg/mL (≈ 0.857 µM); MIC [17]: 44.3 µg/mL (≈ 190 µM); Selective index TD50/MIC (HepG2 cells): 100; HepG2 TD99 (HepG2 cells): 26 µg/mL; MIC (Pseudomonas aeruginosa): ≥ 100 µg/mL
